Test results published in US9399145B2, “Nanoscale neuromodulating platform for retina neuron activation apparatus and method” (The Board of Trustees of the University of Illinois, priority 2005, dated 2016).

What was measured:
[1] = system: GABAARs of cerebellar PNs; test: Test for direct agonist activity on Purkinje neurons (recirculating MPC088, no exogenous GABA); format: cell-based, mouse
Experimental: To test for direct agonist activity of MPC088 on PNs, cerebellar slices were perfused with recirculating 30 μM MPC088 (the maximal MPC088 concentration that could be reliably maintained solubilized in bicarbonate-buffered solution). MPC088 was converted to cis-dominant form by a 2-min exposure to UV light (LED, 365 nm/160 mW, Mouser, Inc., Mansfield, Tex.; LED driver, 700 mA BuckPuck DC Driver, Quadica Developments, Inc., Brantford, Ontario, Canada), before its dilution into the recirculating external solution. The same LED was then used to continuously UV-illuminate the recirculating solution for the duration of the experiment. Whole-cell voltage clamp recordings were obtained from PNs and determined the change in membrane current produced by alternating blue and UV illumination of the slice, as in the FIG. 40 experiments. […] The temporal sequence of illumination differed among the experiments (e.g., only the cell in a received multiple blue/UV exposures), but the data plotted are the amplitudes from the blue to UV transition (in the case of the cell in a, this is the blue/UV transition from the first of the three exposures). Yellow-filled data points indicate results from the experiment in a. Each data point is the average obtained from 4-10 consecutive recordings. […] Error bars represent the SEM (FIG. 42b).

[2] = system: GABAARs of isolated bipolar cells of rat retina; test: Whole-cell recording of isolated retinal bipolar cells; format: cell-based
From the text: Data obtained with trans-MPC088 indicated substantial GABAAR potentiating activity by trans-MPC088 (FIG. 61).

Hydrophobicity (log P) = format: physicochemical
[3] = system: GABAARs of retinal ganglion cells; test: Whole-cell patch clamp of isolated retinal ganglion cells; format: cell-based, rat; settings: for peak amplitude of direct response relative to response to 200 μM GABA: alone
Experimental: To test whether native neuronal GABAARs respond to MPC088, retinal ganglion cells (RGCs), a cell type known to abundantly express GABAARs (Ishida et al. (1988); Fischer et al. (1998); Wässle et al. (1998); Rotolo et al. (2003)), were examined. […] The cis-dominant preparation was obtained by pre-treating trans-dominant MPC088 with UV light for 5 min.
Inset: Aggregate data for direct activation by MPC088.
Experiments were conducted on enzymatically dissociated ganglion cells obtained from adult Sprague-Dawley rats (male and female, 6-16 weeks of age) (Charles River Laboratories, Wilmington, Mass.). Procedures for euthanasia, isolation of the retina, and the dissociation of retinal cells were as described previously (Ramsey et al. (2007) except that the period of retinal cell dissociation was shortened from 40 min to 20 min. Isolated ganglion cells were identified on the basis of their morphological appearance and the presence of a large voltage-gated sodium current. Whole-cell patch-clamp techniques similar to those described (Ramsey et al. (2007)) were used to record membrane current responses to test agents. The patch pipette with a resistance of 8-12 MΩ was pulled in two stages using a micro-electrode puller (Model PP830, Narishige Group, Tokyo, Japan). The pipette was filled with an intracellular solution containing 95 mM CsCH3SO3, 20 mM TEA-Cl, 10 mM glutamic acid, 1 mM BAPTA, 10 mM HEPES, 8 mM phosphocreatine di(tris), 1 mM MgATP and 0.2 mM Na2GTP; pH adjusted to 7.2 with CsOH. Cells were clamped at 0 mV (Axopatch 200B amplifier; Axon Instruments), and experimental runs were controlled by pCLAMP system software (Axon Instruments). Electrophysiological data were obtained in response to test compounds dissolved in physiological saline (Ringer solution) that consisted of 135 mM NaCl, 5 mM KCl, 2 mM CaCl2, 2 mM MgCl2, 10 mM glucose, and 5 mM HEPES, pH 7.4. Supplementation of aqueous test solutions with MPC088 was carried out by adding an aliquot of a stock solution containing the compound dissolved in dimethyl sulfoxide (DMSO). In all experiments, the amount of carrier DMSO present in the applied test solution was <1% (v/v). Test solutions were delivered from separate reservoirs by a multi-channel perfusion system. The same UV-LED used in the oocyte experiments was used for UV illumination of MPC088-supplemented test solutions. For preparation of cis-dominant MPC088, the test solution of initially trans-dominant compound underwent a 5-min UV illumination prior to its placement in the perfusion reservoir. All preparative procedures were performed in the dark, and the reservoirs and perfusion lines were light-protected with aluminum foil. As in the oocyte experiments, data were analyzed with Clampfit and plotted with Origin. Unless otherwise stated, numerical data from replicate experiments are presented as mean±SD, and all statistical analyses of data obtained from oocytes and from retinal ganglion cells employed a two-sample t-test.

[4] = system: GABAARs of cerebellar PNs; test: Whole-cell voltage clamp of cerebellar Purkinje neurons in slices, GABA-evoked currents with UV/blue light; format: cell-based, mouse; settings: 10 μM GABA + 30 μM MPC088 by pressure pipette
Experimental: To evaluate the efficacy of MPC088 in GABAAR-expressing cells in situ, whole-cell voltage-clamp experiments were conducted on Purkinje neurons (PNs) in parasagittal slices from mouse cerebellum (Häusser et al. (1997); Smith et al. (2003)) (FIG. 40). […] The cell was flashed with UV light (1 s, shuttered from a mercury arc lamp), then blue light (1 s, from a 470 nm LED), and then again with UV light (1 s). […] The magnitude of the UV-to-blue transition was calculated as (B-UV1)/UV1; that of the blue-to-UV transition was calculated as (UV2-B)/UV2. […] For the negative control experiments (i.e., those involving exposure to vehicle or propofol alone) in which no light-evoked current was detectable, current was measured for identical epochs at the terminations of the light pulses.
Experiments on cerebellar PNs employed acute slices obtained from cerebella of 16-30 day-old C57/BL6 mice (Charles River Laboratories). After induction of deep anesthesia with isoflurane, mice were decapitated, and the cerebellum vermis was removed and placed in an ice-cold cutting solution containing (in mM): 85 NaCl, 2.5 KCl, 0.5 CaCl2, 4 MgCl2, 1.25 NaH2PO4, 24 NaHCO3, 25 glucose, and 75 sucrose. A Leica VT1000 vibratome was used to cut 250 μm thick, sagittal slices from the cerebellar vermis. […]

α1β3γ2 GABAAR = target: T1, α1β3γ2 GABAAR (UniProt P28472+P62813); test: Two-electrode voltage clamp of α1β3γ2 GABAAR-expressing oocytes; format: cell-based; settings: 1 μM trans-MPC088 with 1 μM GABA (~EC3)
T1 construct: expressed in transfected cells; host or cells: Xenopus oocytes
From the text: Propofol is known to modulate GABAA receptors that contain a β subunit. […] Data in each group was obtained from 4 oocytes. […] Aggregate concentration-response data was also obtained from α1β3γ2 (squares) and α4β3δ (circles) receptors with trans-dominant MPC088 alone (FIG. 37b). Data was similarly normalized to the saturating GABA response obtained from each oocyte. Results for α1β2γ2 GABAARs in a and b (triangles) were reproduced from those of FIGS. 35c and 36b, respectively.
The activity of trans-dominant MPC088 was also tested at receptors containing the β-subunit substitution N265M, a mutation that markedly reduces the action of propofol both in vitro and in vivo (Jurd et al. (2003); Siegwart et al. (2002)). […] For each receptor type, illustrated responses are representative data obtained from a single oocyte.

T1 sequence (P62813 28-455): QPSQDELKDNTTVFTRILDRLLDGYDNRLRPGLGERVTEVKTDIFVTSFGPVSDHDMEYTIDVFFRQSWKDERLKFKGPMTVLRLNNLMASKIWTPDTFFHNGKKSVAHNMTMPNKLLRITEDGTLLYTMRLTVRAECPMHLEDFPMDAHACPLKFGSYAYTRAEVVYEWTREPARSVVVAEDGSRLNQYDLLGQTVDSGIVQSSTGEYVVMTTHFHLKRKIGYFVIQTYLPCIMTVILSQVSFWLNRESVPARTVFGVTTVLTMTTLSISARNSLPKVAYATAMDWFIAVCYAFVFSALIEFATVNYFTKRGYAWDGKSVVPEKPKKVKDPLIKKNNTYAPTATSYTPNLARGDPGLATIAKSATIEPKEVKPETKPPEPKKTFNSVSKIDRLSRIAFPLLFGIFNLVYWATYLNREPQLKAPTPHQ
T1 sequence (P28472 26-473): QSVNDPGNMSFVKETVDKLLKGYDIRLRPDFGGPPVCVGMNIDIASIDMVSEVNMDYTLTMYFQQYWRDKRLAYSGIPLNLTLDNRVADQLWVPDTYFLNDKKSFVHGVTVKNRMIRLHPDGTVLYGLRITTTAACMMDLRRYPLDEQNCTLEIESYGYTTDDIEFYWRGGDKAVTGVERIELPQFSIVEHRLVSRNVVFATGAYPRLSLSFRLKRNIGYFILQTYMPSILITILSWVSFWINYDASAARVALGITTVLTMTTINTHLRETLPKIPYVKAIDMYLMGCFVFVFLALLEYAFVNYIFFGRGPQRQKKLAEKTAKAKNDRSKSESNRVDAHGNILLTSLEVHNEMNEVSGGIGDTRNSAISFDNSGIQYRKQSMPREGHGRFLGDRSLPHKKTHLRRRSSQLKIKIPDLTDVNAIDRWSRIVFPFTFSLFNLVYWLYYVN
T1 sequence (P18507 40-467 isoform P18507-1 partner limits assumed): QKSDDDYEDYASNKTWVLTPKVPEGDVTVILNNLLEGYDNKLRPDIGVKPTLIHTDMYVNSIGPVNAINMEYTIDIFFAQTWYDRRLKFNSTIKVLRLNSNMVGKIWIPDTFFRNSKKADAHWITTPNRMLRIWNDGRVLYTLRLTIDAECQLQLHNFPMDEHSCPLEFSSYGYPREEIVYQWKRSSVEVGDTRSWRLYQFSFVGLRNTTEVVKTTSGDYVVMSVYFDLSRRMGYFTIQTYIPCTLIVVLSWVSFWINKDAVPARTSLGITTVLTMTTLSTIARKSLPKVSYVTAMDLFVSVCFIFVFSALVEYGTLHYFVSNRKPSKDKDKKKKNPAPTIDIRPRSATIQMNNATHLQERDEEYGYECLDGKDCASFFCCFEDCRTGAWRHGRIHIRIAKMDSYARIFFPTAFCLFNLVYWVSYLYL

## CC(C)c1cc(CCCC(=O)NCc2ccc(/N=N/c3ccc(C(=O)NCCN)cc3)cc2)cc(C(C)C)c1O [MPC088, (E)-N-(2-Aminoethyl)-4-((4-((4-(4-hydroxy-3,5-diisopropylphenyl)butanamido)methyl)phenyl)diazenyl)benzamide]
[1]; 30 μM recirculating, blue/UV illumination, subset of 28 of 44 cells with change >18 pA
  average light-evoked current change: 80±13 pA
[1]; concentrations comparable to or lower than 30 μM
  mode of action in cerebellar tissue: modulatory (endogenous GABA-dependent) rather than agonistic
[2]; 5 μM with 10 μM GABA and 100 μM TPMPA
  potentiating factor (peak amplitude relative to the 10 μM GABA response): 1.73±0.01
[2]; 15 μM with 10 μM GABA and 100 μM TPMPA
  potentiating factor (peak amplitude relative to the 10 μM GABA response): 3.26±0.42
Hydrophobicity (log P)
  logP: > 6
[3]; 10 μM trans-dominant
  potentiation of the response elicited by 2 μM GABA: approximately 5 fold
[3]; 30 μM trans-dominant
  peak amplitude of direct response relative to response to 200 μM GABA: 5%
[3]; 60 μM trans-dominant
  peak amplitude of direct response relative to response to 200 μM GABA: 43±9%
[3]; 60 μM, UV pre-treated (cis-dominant) vs trans-dominant
  reduction of agonist activity by UV pre-treatment: 88±6%
[4]
  mean ratio of absolute current magnitude in response to blue→UV/UV→blue: 1.00±0.01
α1β3γ2 GABAAR
  response enhancement: 4.4±1.3 fold
